According to patent US20230056846A1, “METHODS AND COMPOSITIONS FOR CANCER IMMUNOTHERAPY” (MEMORIAL SLOAN KETTERING CANCER CENTER, priority 2020, published 2023):

Legend:
[1] = test system: CT26 MSH2-/- MMRd cells; assay: viability assay of MMR-deficient MSH2 KO CT26 cells; type: cell-based, mouse; settings: MSH2 KO cells compared with parental CT26
[2] = test system: CT26 colon cancer cells; assay: pre-treated CT26 cells implanted in mice randomized to anti PD-1 or IgG isotype control; type: in vivo, mouse
Source text: FIGS. 4A-B. Treatment of colon cancer cells with TMZ and cisplatin induces a high frameshift load leading to the spontaneous immuno-rejection of tumors in a preclinical mouse model. FIG. 4A. […] Treatment with either anti PD-1 or the IgG isotype control was commenced when the tumors reached a volume of 200 mm^3. […] The MSH2 KO cell line was used as a positive control for PD-1 blockade. FIG. 4B. Tumors were subjected to whole exome sequencing at 250x and immunoediting was studied by comparing mutation losses before and after engraftment.
Experiments were performed to examine the effect of PD-1 blockade on the growth of tumors generated following injection of mice with tumor cells that had been pre-treated with either a vehicle control, TMZ alone, cisplatin alone, or TMZ/CDDP combination. 1 million cells from control or treatment groups (pre-treated for 8 weeks) were implanted subcutaneously into mice (n=10) and mice were then randomly assigned to either an anti PD-1 treatment group (treated with anti PD-1 at 6 mg/kg twice weekly when tumor reached 200 mm^3) or an IgG isotype control group. CT26 MSH2 KO cells were used as a positive control (FIG. 4). […] For tumors generated following injection of cells pre-treated with the combination of both temozolomide and cisplatin, out of 10 implanted tumors only one was not rejected (9 out of 10 were rejected). […]

[3] = test system: CT26 colon cancer cell line
Method: CT26 cells were treated for 8 weeks by low dose TMZ, CDDP or TMZ/CDDP combination (drugs were removed one week before the experiment).

Compound: [NH2][Pt]([NH2])([Cl])[Cl] [CDDP, cisplatin]
- cytotoxicity [1]: Higher activity
- effect of PD-1 blockade compared with isotype control on tumors from pre-treated cells ([2]; anti PD-1 6 mg/kg twice weekly from 200 mm^3): no effect of PD-1 blockade
- tumor growth compared to control ([2]; cells pre-treated 8 weeks, 1 week wash out): no significant difference in tumor growth compared to control
- sensitivity of CT26 cells to single agent [3]: sensitive
